# Key:
# [1] = Titration with acetic or lactic acid: pH and physical stability (Table D); format: physicochemical
# From the text: Formulations containing 6/1.5% and 5.4/1.5% LD/CD and varying L-Arg concentrations were titrated with acetic acid (100%) or lactic acid (85%), to study the effect of pH and L-Arg concentration on the physical stability of the solutions (Table D).
# [2] = Effect of carbidopa on stability of levodopa formulations in vitro (Tables F, G, FIG. 1A); format: physicochemical
# Method: (§1) 6% by weight levodopa and arginine solution with various concentrations (2, 1.5, 1, 0.5%) of carbidopa or no carbidopa were tested for physical stability in vitro. […] 1B. 7% by weight levodopa and arginine solution, with or without 2% carbidopa by weight, continuously administered in to the subcutaneous tissue of a 5×5 cm fresh, full-thickness pig skin.
# The effect of carbidopa on levodopa formulations was investigated. Levodopa (LD) formulations were prepared with 0, 0.5, 1, 1.5 and 2% by weight carbidopa (CD) and a constant concentration of arginine.
# In an additional experiment, LD formulations were prepared with 0, 0.5, 1 and 2% CD and respective concentrations of arginine.
# pigs = settings: pig, in vivo, sc
# Method: The effect of carbidopa on levodopa local toxicity was investigated in pigs: solutions containing 6% LD and 0, 0.5 or 1% CD with the respective amount of arginine (13.5, 14.2 or 14.8%, respectively) were continuously administered SC to pigs at 0.16 ml/h×24 h. Each formulation was administered to 2 pigs. Skin samples were collected 8±1 days thereafter.
# [3] = Stability of carbidopa formulations with and without levodopa (Table H); format: physicochemical; settings: in the presence of LD
# From the text: The effect of levodopa on the stability of carbidopa was investigated. Table H indicates results.
# It appears that LD may protect CD from degradation.
# pig skin = assay: Continuous administration into full-thickness pig skin ex vivo (FIG. 1B); settings: 7% LD/arginine solution with 2% CD, 0.08 ml/h×18 h, 37° C.
# Method: as §1, with “FIGS. 1A-1B show the effect of carbidopa on the stability of levodopa in vitro and ex vivo: 1A. 6%” for “6%”
# A 7% LD/arginine solution, with or without 2% CD, was continuously administered at 0.08 ml/h×18 h, 37° C. into a 5×5 cm fresh, full-thickness pig skin.
# [4] = cited from earlier work
# [5] = Plasma LD, CD and 3-OMD during continuous SC LD/CD with oral entacapone in human volunteers (FIG. 6); format: in vivo, human
# Method: A single center, double-blind, randomized, placebo-controlled, study was conducted with six healthy Caucasian males volunteers, aged 18-40 years old. LD (6%)/CD (1.5%) was administered at a rate of […], corresponding to 360 mg of LD and 90 mg of CD per 24 hours. […] Plasma LD, CD and 3-OMD concentrations were quantified at pre-determined time points.
# [6] = cited from earlier work; remark: listed apart in the source
structure (smiles),measurement,setting,value
O=C1O[C@H]([C@@H](O)CO)C(O)=C1O [ascorbic acid],Reduction of the pH as compared to Na-ascorbate,[1],0.1-0.15 units
"C[C@@](Cc1ccc(O)c(O)c1)(NN)C(=O)O [CD, carbidopa]",Effect on the chemical stability of levodopa,[2]; Table F,does not have a significant effect
same,Dark yellow color formation,"[2]; in the absence of air (N2 in the head space), 0.5% carbidopa",sufficient to inhibit this color formation
same,Dark yellow color formation,"[2]; in the presence of air, 6% levodopa and arginine solution with 0.5-2% carbidopa",prevented dark yellow color formation
same,Local levodopa dependent subcutaneous toxicity,pigs,reduces the severity and extent
same,Sensitivity of CD to oxidation and degradation,[3],more stable in the presence of LD
same,Oxidation of LD ex vivo (black by-products),pig skin,lack of black by-products formation
same,Oxidation of LD ex vivo (black by-products),pig skin; listed as carbidopa,inhibition of oxidation
"CCN(CC)C(=O)/C(C#N)=C/c1cc(O)c(O)c([N+](=O)[O-])c1 [E, entacapone]",Highest increase in the total amount of levodopa,"[4]; after 400 mg dose of entacapone, oral levodopa and carbidopa",about 33%
same,Total amount of carbidopa in blood,[4]; high doses of entacapone (400 mg and 800 mg),decrease the total amount of carbidopa in blood
same,Steady state of plasma concentrations of LD,"[5]; 24 hours after LD/CD infusion initiation, 9 hours after entacapone dosing initiation",did not reach a steady state
same,Plasma concentrations of 3-OMD,"[5]; human, in vivo",significantly reduced
same,Blood level of levodopa,"[5]; male, human, in vivo",about 620 ng/ml
same,Increase of the blood level of levodopa,"[5]; male, human, in vivo",more than 40%
same,Increase in the level of levodopa,[6]; according to Nyholm et al.,up to 33%
same,Reduction of the dose of levodopa and carbidopa maintaining the desired blood level of levodopa,"[6]; oral 200 mg entacapone, intraintestinal infusion of levodopa and carbidopa",20%
